Earlier results as cited in patent publication US6660286B1, “Emulsion vehicle for poorly soluble drugs” (Sonus Pharmaceuticals, Inc., priority 1997, dated 2003).
Like-named read-outs stand apart in the source and are kept apart here.

In the case of `CC(=O)O[C@H]1C(=O)[C@@]2(C)[C@H]([C@H](OC(=O)c3ccccc3)[C@]3(O)C[C@H](OC(=O)[C@H](O)[C@@H](NC(=O)c4ccccc4)c4ccccc4)C(C)=C1C3(C)C)[C@]1(OC(C)=O)CO[C@@H]1C[C@@H]2O` [paclitaxel], the solubility of paclitaxel (30% PVP in water) is listed as at most 0.3 mg/mL, the solubility of paclitaxel (35% PEG 400 in water) is listed as 0.03 mg/mL and the solubility of paclitaxel (admixtures of PEG 400 and water containing 50-100% PEG 400) is listed as 0.2 to 175 mg/mL.
